Here are results for 15 compounds from the CheMixHub viscosity set.

Several values for one entry are separate records, joined by “and”; a condition that tells them apart may be missing. Equal values may be shown once. ± gives the uncertainty stated by the source.

One may read the viscosity as the resistance of a fluid to flow. Lower therefore signals easy flow. For the compound `C=Cn1cc[n+](CC(N)=O)c1.O=S(=O)([N-]S(=O)(=O)C(F)(F)F)C(F)(F)F`, the viscosity was 280.7 ± 58 mPa·s (298.15 K, 100 kPa); 140.3 ± 28 mPa·s (303.15 K, 100 kPa); 71.51 ± 14 mPa·s (308.15 K, 100 kPa); 35.3 ± 7.1 mPa·s (313.15 K, 100 kPa); 19.85 ± 4 mPa·s (318.15 K, 100 kPa); 12.53 ± 2.5 mPa·s (323.15 K, 100 kPa).

As for `CC(=O)c1ccc(C)cc1`, the viscosity runs as follows: (303.15 K, 100 kPa) 1.581 ± 0.021 mPa·s; (303.15 K, 101 kPa) 1.581 ± 0.021 mPa·s.

For the compound `CC1CCC(=O)O1` (stereo not drawn), the viscosity is given as 1.873 ± 0.016 mPa·s (298.15 K, 101 kPa); 1.72 ± 0.015 mPa·s (303.15 K, 101 kPa); 1.586 ± 0.014 mPa·s (308.15 K, 101 kPa); 1.458 ± 0.013 mPa·s (313.15 K, 101 kPa); 1.364 ± 0.012 mPa·s (318.15 K, 101 kPa).

With `CCC1(C)OC1C#N` (stereo not drawn), the viscosity runs as follows: (293.15 K, 101 kPa) 1.485 ± 0.039 mPa·s; (298.15 K, 101 kPa) 1.34 ± 0.04 mPa·s; (303.15 K, 101 kPa) 1.19 ± 0.03 mPa·s; (313.15 K, 101 kPa) 0.98 ± 0.03 mPa·s; (323.15 K, 101 kPa) 0.84 ± 0.02 mPa·s.

Take `CCCCC(CC)COP(=O)(O)OCC(CC)CCCC` (stereo not drawn): the viscosity is 20.25 ± 0.81 mPa·s (303.15 K, 101 kPa) and 13.35 ± 0.54 mPa·s (313.15 K, 101 kPa).

For `CCCCCCCCCCCCN`, the viscosity (303.15 K, 101 kPa) is 2.658 ± 0.029 mPa·s.

Regarding `CCCCCCCCCCCC[N+](C)(C)Cc1ccccc1.O=S(=O)([N-]S(=O)(=O)C(F)(F)F)C(F)(F)F`, the viscosity reads like this: (298.15 K, 101 kPa) 1425 ± 200 mPa·s; (303.15 K, 101 kPa) 974.3 ± 130 mPa·s; (308.15 K, 101 kPa) 682.7 ± 88 mPa·s; (313.15 K, 101 kPa) 484.8 ± 59 mPa·s; (318.15 K, 101 kPa) 351.1 ± 41 mPa·s; (323.15 K, 101 kPa) 260.6 ± 29 mPa·s.

As to `CCCCCCn1cc[n+](C)c1.F[P-](F)(F)(F)(F)F`, the viscosity was 497.1 ± 150 mPa·s (303.15 K, 101 kPa); 364.4 ± 110 mPa·s (308.15 K, 101 kPa); 273 ± 83 mPa·s (313.15 K, 101 kPa); 208.5 ± 63 mPa·s (318.15 K, 101 kPa).

Regarding `CCCCOC(=O)C(C)O` (stereo not drawn), the viscosity (318.15 K, 101 kPa) stood at 1.935 ± 0.034 mPa·s.

For `CCCCOCCOCCOCCO`, the viscosity came to 9.282 ± 0.055 mPa·s (293.15 K, 101 kPa); 6.528 ± 0.04 mPa·s (303.15 K, 101 kPa); 4.979 ± 0.032 mPa·s (313.15 K, 101 kPa); 3.769 ± 0.024 mPa·s (323.15 K, 101 kPa).

As to `CCCC[n+]1cc[nH]c1.O=S(=O)([N-]S(=O)(=O)C(F)(F)F)C(F)(F)F`, under “313.2 K, 101.33 kPa”, the viscosity is 47.18 ± 5.1 mPa·s.

With `C[N+](=O)[O-]`, the viscosity was 0.648 ± 0.007 mPa·s (293.15 K, 101 kPa); 0.644 ± 0.005 mPa·s and 0.644 ± 0.007 mPa·s and 0.646 ± 0.006 mPa·s (293.15 K, 101.33 kPa); 0.627 ± 0.008 mPa·s (298 K, 101.3 kPa); 0.6215 ± 0.0083 mPa·s and 0.615 ± 0.025 mPa·s (298.15 K, 101.33 kPa); 0.619 ± 0.006 mPa·s (298.45 K, 101 kPa); 0.581 ± 0.006 mPa·s and 0.581 ± 0.024 mPa·s (303.15 K, 101.33 kPa). In addition, the viscosity is 0.522 ± 0.005 mPa·s and 0.522 ± 0.021 mPa·s (313.15 K, 101.33 kPa); 0.5187 ± 0.02 mPa·s (318 K, 101.3 kPa); 0.5208 ± 0.014 mPa·s and 0.51 ± 0.006 mPa·s and 0.505 ± 0.005 mPa·s (318.15 K, 101 kPa); 0.486 ± 0.006 mPa·s (323.15 K, 101 kPa); 0.4845 ± 0.0066 mPa·s (323.15 K, 101.33 kPa).

Consider `Cc1cccc(O)c1`, for which the viscosity reads like this: (293.15 K, 101 kPa) 16.9 ± 0.28 mPa·s; (298 K, 101.3 kPa) 13.19 ± 0.26 mPa·s; (303 K, 101.3 kPa) 9.877 ± 0.17 mPa·s; (308 K, 101.3 kPa) 7.599 ± 0.1 mPa·s; (308.15 K, 101.33 kPa) 7.635 ± 0.16 mPa·s; (313 K, 101.3 kPa) 6.146 ± 0.065 mPa·s. For the same compound, the viscosity is, setting by setting: (313.15 K, 101 kPa) 5.925 ± 0.064 mPa·s and 6.542 ± 0.18 mPa·s; (313.15 K, 101.3 kPa) 6.252 ± 0.075 mPa·s; (313.15 K, 101.33 kPa) 6.18 mPa·s; (318 K, 101.3 kPa) 4.968 ± 0.057 mPa·s; (318.15 K, 101 kPa) 5.373 ± 0.69 mPa·s and 5.373 ± 0.46 mPa·s; (323.15 K, 101.3 kPa) 4.111 ± 0.05 mPa·s.

Consider `N`, for which the viscosity (293.15 K, 101 kPa) is 0.144 ± 0.004 mPa·s.

As for `O=Cc1ccco1`, the viscosity by setting is: (293.15 K, 100 kPa) 1.62 ± 0.65 mPa·s; (298.15 K, 100 kPa) 1.48 ± 0.59 mPa·s; (303.15 K, 100 kPa) 1.36 ± 0.54 mPa·s; (308.15 K, 100 kPa) 1.26 ± 0.5 mPa·s; (313.15 K, 100 kPa) 1.17 ± 0.47 mPa·s; (318.15 K, 100 kPa) 1.09 ± 0.44 mPa·s. The viscosity (323.15 K, 100 kPa) is on record as 1.02 ± 0.41 mPa·s.
